# Experimental data reported in patent US20260042731A1, “(2,4-DICHLOROPHENOXY)ACETIC ACID ANALOGS” (CORTEVA AGRISCIENCE LLC, priority 2022, published 2026).
# Like-named read-outs stand apart in the source and are kept apart here.
# Legend:
# [1] = system: Ambrosia artemisiifolia (AMBEL), common ragweed; assay: Postemergence herbicide evaluation, growth of Ambrosia artemisiifolia (AMBEL); assay type: in vivo; conditions: Ambrosia artemisiifolia, post-emergence, percent reduction in plant size relative to untreated control, read-out: AVE. AMBEL; for pest or weed control at 280 g/ha: 280 g ae/ha; for pest or weed control at 560 g/ha: 560 g ae/ha
# [2] = system: glyphosate resistant Conyza canadensis (L.) (ERICA), horseweed; assay: Postemergence herbicide evaluation, growth of Conyza canadensis (ERICA); assay type: in vivo; conditions: Erigeron canadensis, post-emergence, percent reduction in plant size relative to untreated control, read-out: Ave. ERICA; for pest or weed control at 280 g/ha: 280 g ae/ha; for pest or weed control at 560 g/ha: 560 g ae/ha
# [3] = Volatility of compounds measured by thermogravimetric analysis (TGA); assay type: physicochemical
# [4] = system: Abutilon theophrasti (ABUTH), velvetleaf; assay: Postemergence herbicide evaluation, growth of Abutilon theophrasti (ABUTH); assay type: in vivo; conditions: Abutilon theophrasti, post-emergence, percent reduction in plant size relative to untreated control, read-out: AVE. ABUTH; for pest or weed control at 280 g/ha: 280 g ae/ha; for pest or weed control at 560 g/ha: 560 g ae/ha
# [5] = system: weeds (ABUTH, AMATA, AMBEL, CHEAL, ERICA); assay: Postemergence herbicide evaluation, overall average % weed control across ABUTH, AMATA, AMBEL, CHEAL, ERICA; assay type: in vivo; conditions: post-emergence, average over the five weeds, read-out: Overall Ave % Weed Control; for pest or weed control at 280 g/ha: 280 g ae/ha; for pest or weed control at 560 g/ha: 560 g ae/ha
# [6] = system: Amaranthus rudis (AMATA), tall water hemp; assay: Postemergence herbicide evaluation, growth of Amaranthus rudis (AMATA); assay type: in vivo; conditions: Amaranthus tuberculatus, post-emergence, percent reduction in plant size relative to untreated control, read-out: Ave. AMATA; for pest or weed control at 280 g/ha: 280 g ae/ha; for pest or weed control at 560 g/ha: 560 g ae/ha
# [7] = system: Chenopodium album (CHEAL), common lambsquarters; assay: Postemergence herbicide evaluation, growth of Chenopodium album (CHEAL); assay type: in vivo; conditions: Chenopodium album, post-emergence, percent reduction in plant size relative to untreated control, read-out: Ave. CHEAL; for pest or weed control at 280 g/ha: 280 g ae/ha; for pest or weed control at 560 g/ha: 560 g ae/ha
SMILES,"pest or weed control at 280 g/ha ([1]; 168 h, 7 DAA)","pest or weed control at 560 g/ha ([1]; 168 h, 7 DAA)","pest or weed control at 280 g/ha ([1]; 336 h, 14 DAA)","pest or weed control at 560 g/ha ([1]; 336 h, 14 DAA)","pest or weed control at 280 g/ha ([1]; 504 h, 21 DAA)","pest or weed control at 560 g/ha ([1]; 504 h, 21 DAA)","pest or weed control at 280 g/ha ([2]; 168 h, 7 DAA)","pest or weed control at 560 g/ha ([2]; 168 h, 7 DAA)","pest or weed control at 280 g/ha ([2]; 336 h, 14 DAA)","pest or weed control at 560 g/ha ([2]; 336 h, 14 DAA)","pest or weed control at 280 g/ha ([2]; 504 h, 21 DAA)","pest or weed control at 560 g/ha ([2]; 504 h, 21 DAA)","TGA Data (rate of weight loss, volatility) [3]","pest or weed control at 280 g/ha ([4]; 168 h, 7 DAA)","pest or weed control at 560 g/ha ([4]; 168 h, 7 DAA)","pest or weed control at 280 g/ha ([4]; 336 h, 14 DAA)","pest or weed control at 560 g/ha ([4]; 336 h, 14 DAA)","pest or weed control at 280 g/ha ([4]; 504 h, 21 DAA)","pest or weed control at 560 g/ha ([4]; 504 h, 21 DAA)","pest or weed control at 280 g/ha ([5]; 168 h, 7 DAA)",other results
"CS/C(C)=N\OC(=O)COc1ccc(Cl)cc1Cl [Compound A10, Methyl N-2-(2,4-dichlorophenoxy)acetoxyethanimidothioate]",70%,75%,85%,92%,100%,96%,63%,68%,85%,83%,93%,94%,0.6 µg/min,83%,88%,90%,92%,98%,94%,72%,"pest or weed control at 560 g/ha ([5]; 168 h, 7 DAA): 76%; pest or weed control at 280 g/ha ([5]; 336 h, 14 DAA): 83%; pest or weed control at 560 g/ha ([5]; 336 h, 14 DAA): 84%; pest or weed control at 280 g/ha ([5]; 504 h, 21 DAA): 90%; pest or weed control at 560 g/ha ([5]; 504 h, 21 DAA): 84%; pest or weed control at 280 g/ha ([6]; 168 h, 7 DAA): 80%; pest or weed control at 560 g/ha ([6]; 168 h, 7 DAA): 78%; pest or weed control at 280 g/ha ([6]; 336 h, 14 DAA): 80%; pest or weed control at 560 g/ha ([6]; 336 h, 14 DAA): 73%; pest or weed control at 280 g/ha ([6]; 504 h, 21 DAA): 78%; pest or weed control at 560 g/ha ([6]; 504 h, 21 DAA): 83%; pest or weed control at 280 g/ha ([7]; 168 h, 7 DAA): 65%; pest or weed control at 560 g/ha ([7]; 168 h, 7 DAA): 70%; pest or weed control at 280 g/ha ([7]; 336 h, 14 DAA): 75%; pest or weed control at 560 g/ha ([7]; 336 h, 14 DAA): 83%; pest or weed control at 280 g/ha ([7]; 504 h, 21 DAA): 83%; pest or weed control at 560 g/ha ([7]; 504 h, 21 DAA): 53%"
"O=C(COc1ccc(Cl)cc1Cl)ON1CCCCC1 [Compound A11, Piperidin-1-yl 2-(2,4-dichlorophenoxy)acetate]",65%,78%,90%,97%,95%,100%,65%,68%,90%,85%,95%,95%,4 µg/min,83%,85%,93%,89%,99%,95%,71%,"pest or weed control at 560 g/ha ([5]; 168 h, 7 DAA): 75%; pest or weed control at 280 g/ha ([5]; 336 h, 14 DAA): 87%; pest or weed control at 560 g/ha ([5]; 336 h, 14 DAA): 87%; pest or weed control at 280 g/ha ([5]; 504 h, 21 DAA): 91%; pest or weed control at 560 g/ha ([5]; 504 h, 21 DAA): 95%; pest or weed control at 280 g/ha ([6]; 168 h, 7 DAA): 73%; pest or weed control at 560 g/ha ([6]; 168 h, 7 DAA): 75%; pest or weed control at 280 g/ha ([6]; 336 h, 14 DAA): 89%; pest or weed control at 560 g/ha ([6]; 336 h, 14 DAA): 85%; pest or weed control at 280 g/ha ([6]; 504 h, 21 DAA): 85%; pest or weed control at 560 g/ha ([6]; 504 h, 21 DAA): 88%; pest or weed control at 280 g/ha ([7]; 168 h, 7 DAA): 68%; pest or weed control at 560 g/ha ([7]; 168 h, 7 DAA): 70%; pest or weed control at 280 g/ha ([7]; 336 h, 14 DAA): 75%; pest or weed control at 560 g/ha ([7]; 336 h, 14 DAA): 80%; pest or weed control at 280 g/ha ([7]; 504 h, 21 DAA): 80%; pest or weed control at 560 g/ha ([7]; 504 h, 21 DAA): 97%"
